Where a name gives a salt, the structure may show the parent alone.
Experiments:
[1] = test system: CD1 mice (wild-type and σ1R−/−); assay: Supraspinal analgesia, warm water (52 °C) tail-flick test; assay type: in vivo, mouse; conditions: for analgesia of the substance in σ1R−/− mice compared with wild-type: icv: morphine 3 nmol, β-End 1–31 0.5 nmol, DAMGO 0.1 nmol, DPDPE 10 nmol, WIN55,212-2 15 nmol, 8 mice per strain
Method: Upper panel: the withdrawal thresholds of the contralateral and ipsilateral paws were measured before (indicated as 0) and up to 14 days after surgery. […] Middle panel: 0.3 and 3 nmol of ^αN-acetyl β-End 1–31 were administered icv 7 days after surgery, and the nociceptive threshold was evaluated at the indicated postinjection intervals (in minutes). For every time interval studied in min or days, * indicates a significant difference from the group that received saline instead of ^αN-acetyl β-End 1–31; ϕ significant difference from the effect of 3 nmol ^αN-acetyl β-End 1–31. […] All data are presented as the mean ± SD of six mice. ANOVA followed by the Holm–Sidak multiple comparisons test, p < 0.05, 1-β > 0.80. […] Upper panel: wild-type mice were injected icv with saline, ^αN-acetyl β-End 1–31 (1 nmol/mouse) or the combination of the σ1R agonist PPCC (3 nmol/mouse) plus ^αN-acetyl β-End 1–31 20 min before morphine and β-End 1–31. Analgesia was evaluated by the warm water (52 °C) tail-flick test at the interval postinjection corresponding to their peak effect, 30 min. Lower panel: σ1R^−/− mice received 1 nmol ^αN-acetyl β-End 1–31, 20 min before morphine and β-End 1–31 and analgesia was evaluated as described above. Eight mice were used per strain and treatment. * Significant difference with respect to the group treated with morphine or β-End 1–31 alone. ANOVA followed by the Holm–Sidak multiple comparisons test, p < 0.05, 1-β > 0.80.
Figure 3 Effect of physiological β-End 1–31 derivatives on morphine and β-End 1–31 analgesia. […] (A) The mice were icv-injected with 25 nmol of β-End 1–26, β-End 1–27 and ^αN-acetylated derivatives 20 min before icv 0.5 nmol β-End 1–31. Analgesia was determined at the indicated postinjection intervals. (B) CD1 wild-type and σ1R^−/− mice were administered C terminal peptide sequences 27–31, 28–31 and 30–31 of β-End 1–31 through an icv injection 20 min before 0.5 nmol of the whole β-End 1–31 and morphine (10 nmols) were injected icv. […] (C) A series of exogenous σ1R ligands (3 nmol) were icv-injected 20 min before 0.5 nmol β-End 1–31 was administered via icv in wild-type mice. The σ1R antagonist S1RA was also icv-injected before β-End 1–31 was administered icv in σ1R^−/− mice. (D) The effects of several doses of S1RA on morphine analgesia were studied in wild-type and σ1R^−/− mice. […] ANOVA followed by the Holm–Sidak multiple comparisons test, p < 0.05, 1-β > 0.80.
(A) The effect of σ1R deletion on opioid- and cannabinoid-induced analgesia. Analgesic compounds were icv-injected into wild-type and σ1R^−/− mice, and analgesia was evaluated 30 min after morphine (3 nmol) and β-End 1–31 (0.5 nmol), 15 min after DAMGO (0.1 nmol) and DPDPE (10 nmol) and 10 min after WIN55,212-2 (15 nmol). The bars are the mean ± SD of eight mice per strain and treatment. * Significant difference with respect to the effect of the analgesic substance in the wild-type group. ANOVA followed by the Holm–Sidak multiple comparisons test, p < 0.05, 1-β > 0.80. (B) Coprecipitation of G proteins with MORs. Solubilized mouse brain cortical membranes enriched in synaptosomes (SBM) from CD1 wild-type (WT) and σ1R^−/− mice were solubilized with sonication in the presence of 1% NP-40. Non-soluble debris was eliminated, and the samples were then incubated overnight at 4 °C with affinity-purified biotinylated IgGs that were raised against extracellular regions of the MOR. Protein complexes that were immunoprecipitated with streptavidin agarose were extensively washed and then resolved by SDS-PAGE.

σ1R-σ2R = σ1R-σ2R (Mus musculus, UniProt O55242); assay: In vitro σ1R-σ2R association of recombinant proteins (HaloLink-σ2R, Western blot); assay type: biochemical, murine; set-up: The coding region of the full-length murine σ1R (AF004927); GST (N, cleaved yes); made in house; host or cells: E. coli BL21 (KRX); conditions: increasing concentrations; 30 min RT; vs control without ligand
Method: (§1) Figure 7 Effect of β-End 1–31, ^αN-acetyl β-End 1–31 and their N-terminal derivatives on σ1R-σ2R, σ1R-NR1 C1 and σ1R-BiP associations. Amino acid sequence of β-End 1–31 showing derivatives 1–26 and 1–27. (A) HaloLink-attached σ2Rs were incubated for 30 min at RT in the presence of σ1Rs (100 nM) in 300 μL of 50 mM Tris-HCl (pH 7.4), 0.2% CHAPS, and 2.5 mM CaCl2. After removing the unbound σ1R proteins, the effects of increasing the peptide concentrations on σ1R-σ2R associations were studied. At the end of the incubation, protein complexes bound to HaloLink-σ2R were obtained by centrifugation, washed three times, solubilized in 2× Laemmli buffer containing β-mercaptoethanol, resolved by SDS-PAGE, and analyzed by Western blotting (for more details, see Section 4). This protocol was also used to assess the effect of ligands on (B) σ1R-NR1 C1 and (C) σ1R-BiP associations. Data were compared to that of the control, which was obtained in the absence of ligands. (A–C) Data are the mean ± SD, n = 3. (D) The β-End 1–31 structural models were predicted by Novafold (DNASTAR Lasergene protein v.17, Inc., Madison, WI, USA). Ribbon model: The 3D structure, charge distribution and hydrophobicity map of β-End 1–31 are shown. Positive charges are shown in red and negative charges in blue. Polar surfaces are shown in yellow, and nonpolar surfaces are shown in orange. Linear model: the opioid (1–5) and flexible region (8–11) sequences are shown in green and orange, respectively, and the amphiphilic helix (15–25) is shown in pink.
(§2) The recombinant σ1R (100 nM) was incubated either with Haloprotein (negative control) or together with the immobilized σ2R, NR1 C0-C1-C2 or BiP proteins in 300 µL of a buffer containing 50 mM Tris-HCl (pH 7.4) and 0.2% CHAPS in the presence of 2.5 mM CaCl2 for 30 min at RT. After removal of the unbound σ1R, the agarose-attached complexes were incubated for 30 min with rotation at RT in the presence of increasing concentrations of the ligands in a final reaction volume of 300 µL [50 mM Tris-HCl (pH 7.4), 2.5 mM CaCl2 and 0.2% CHAPS]. Ligands were usually dissolved in aqueous solutions; however, when an organic solvent such as DMSO was required to incorporate, e.g., pregnenolone sulfate, the solvent remained below 1% in the assay buffer. Agarose pellets containing the bound proteins were obtained by centrifugation, washed and resuspended thrice in the presence of 2.5 mM CaCl2, solubilized in 2× Laemmli buffer plus β-mercaptoethanol, and analyzed by Western blotting.
(§3) Because all the assays were performed with recombinant proteins, the immune signals provided a single band of the expected size, which was used for the subsequent densitometry analysis. Accordingly, no other regions of the blots provided information and were routinely excluded from the analysis.
Figure S7. Effect of σ1R agonist/antagonist ligands on σ1R-σ2R heterodimers. (A-C) Agarose (Θ)- attached σ2Rs captured recombinant σ1Rs. After removing unbound σ1R proteins, the Θ-σ2R.σ1R complexes were incubated with a ﬁxed concentration of a selected L1 ligand (indicated in brackets) in the absence and presence of increasing concentrations of competing σ1R ligands as indicated. The σ1Rs that remained attached to the Θ-σ2Rs were evaluated by Western blotting. * Signiﬁcant differences with respect to the control group that was incubated without L1 ligands. ANOVA followed by the Holm-Sidak multiple comparisons test, p < 0.05. For details, see Methods and Figure 6A. Representative blots are […]
Figure S8. Effect of the physiological and nonphysiological sequences of β-End 1-31 and classical σ1R ligands on BiP-σ1R, σ2R-σ1R and NR1 C1-σ1R associations . Agarose-BiP was loaded with σ1Rs, and after the unbound σ1Rs were removed, the agarose-BiP-σ1R complexes were incubated in the absence (control) and presence of increasing concentrations of (A) β-End 1-31 C-terminal physiological derivatives and (B) classical σ1R ligands. C) Agarose-σ2R loaded with σ1Rs was incubated in the […]

σ1R-NR1 C1 = biological target: T1, σ1R-NR1 C1 (Mus musculus, UniProt O55242); assay: In vitro σ1R-NR1 C1 association of recombinant proteins (Western blot); assay type: biochemical, murine; conditions: increasing concentrations; 30 min RT; vs control without ligand
T1 construct: The coding region of the full-length murine σ1R (AF004927); GST (N, cleaved yes); made in house; host or cells: E. coli BL21 (KRX)
Method: as §1, §2, §3
Figure S8. Effect of the physiological and nonphysiological sequences of β-End 1-31 and classical σ1R ligands on BiP-σ1R, σ2R-σ1R and NR1 C1-σ1R associations . […]
D) Agarose-NR1 C1 loaded with […]
σ1Rs were incubated in the absence (control) and with nonphysiological derivatives of β-End 1-31. A-D) The σ1Rs that remained attached to the agarose complexes were evaluated by Western blotting. The […]
(1 picture or pasted object on this page, not shown here)
Figure S9. Effect of σ1R agonist/antagonist ligands on σ1R-NR1 C1 associations. Θ-Agarose-NR1 C1 was loaded with recombinant σ1Rs. After unbound σ1R proteins were removed, the complexes were incubated with (A) 1 nM β-End 1-31, (B) αN-acetyl β-End 1-31, (C-D) β-End 28-31 in the absence (black columns) and presence of (A) 10 nM or (B-D) increasing concentrations of competing σ1R ligands as indicated. The σ1Rs that remained attached to the Θ-σ2Rs were evaluated by Western blotting. The […]
Prog is progesterone; PregSulfate is pregnenolone sulfate; Nac is […]

T1 sequence (O55242 whole entry): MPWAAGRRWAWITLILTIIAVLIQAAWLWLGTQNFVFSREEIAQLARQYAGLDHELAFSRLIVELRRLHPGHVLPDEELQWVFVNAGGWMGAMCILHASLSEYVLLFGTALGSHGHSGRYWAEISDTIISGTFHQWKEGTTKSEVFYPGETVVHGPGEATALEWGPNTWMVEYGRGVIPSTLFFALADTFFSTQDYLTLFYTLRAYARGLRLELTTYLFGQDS
Chain of σ1R-σ2R (O55242 whole entry): as above

Compound	analgesia of the substance in σ1R−/− mice compared with wild-type [1]	effect on σ1R-σ2R association (σ1R-σ2R)	effect on σ1R-NR1 C1 association (σ1R-NR1 C1)	other results
Cc1c(C(=O)c2cccc3ccccc23)c2cccc3c2n1[C@H](CN1CCOCC1)CO3 [WIN55,212–2]	did not significantly change			
CN1CC[C@]23c4c5ccc(O)c4O[C@H]2[C@@H](O)C=C[C@H]3[C@H]1C5 [morphine, morphine sulfate]	increased analgesic response			
([D-Ala2, N-MePhe4, Gly-ol]-enkephalin [DAMGO]	augmented			
([D-Pen2,D-Pen5]enkephalin) [DPDPE]	did not significantly change			
GGFL [leu-enkephalin 2–5 metabolite]		disrupted this association		
GGFM [met-enkephalin 2–5 aminopeptidase product]		promoted the sigma receptor heterodimer		
YGGFL [leu-enkephalin, leucine-enkephalin 1–5]		disrupted this association	dissociated σ1R-NR1 C1 complexes	
YGGFM [met-enkephalin, methionine-enkephalin, β-End N-terminal derivative 1–5]		promoted the sigma receptor heterodimer	enhancement	
^αN-acetyl leu-enkephalin: chimeric ^αN-acetylated leu-enkephalin		protective		
β-End 1–4: fragment 1–4 of β-End 1–31 (YGGF; Beta-endorphin; UniProt P01189 237-240, looked up, fragment)			enhancement	
β-End 1–16: nonphysiological fragment of β-End 1–31 (YGGFMTSEKSQTPLVT; Beta-endorphin; UniProt P01189 237-252, looked up, fragment)				effect on β-End 1–31 analgesia, nonphysiological fragments ([1]; 1 nmol icv 20 min before 0.5 nmol β-End 1–31 icv, 6 mice): practically did not alter β-End 1–31 analgesia
β-End 2–31: β-End 1–31 without Y1 (GGFMTSEKSQTPLVTLFKNAIIKNAYKKGE; Beta-endorphin; UniProt P01189 238-267, looked up, fragment)		diminished σ1R-σ2R associations	promoting the σ1R-NR1 C1 association	
